Assay results as given in ChEMBL document CHEMBL6071143, “Discovery of a potent melatonin-based inhibitor of quinone reductase-2 with neuroprotective and neurogenic properties” (Eur J Med Chem, 2024).
In brackets after ≈: the same amount, converted by molar mass. Activity calls are given as the source filed them. The calls are words filed in the database; no cut-off is given here.

Experiments:
SH-SY5Y [1] = assay: Neuroprotective activity against R/O induced human SH-SY5Y cells oxidative stress model assessed as cell survival at 1 uM preincubated for 24 hrs followed by rotenone oligomycin A addition and measured after 24 hrs by MTT assay; type: functional; settings: read-out: Survival
[2] = Displacement of 2-[125I]iodomelatonin from human MT2R transfected in CHO cells incubated for 30 mins; type: cell-based
[3] = Displacement of 2-[125I]iodomelatonin from human MT1R transfected in CHO cells incubated for 30 mins; type: cell-based
[4] = Aqueous solubility of compound incubated for 24 hrs by UV-spectra analysis; type: physicochemical
SH-SY5Y [5] = assay: Cytotoxicity against human SH-SY5Y cells at 1 to 100 uM incubated for 24 hrs by MTT method; type: toxicity, cell-based; settings: dose 1-100 µM
[6] = Antioxidant activity assessed as oxygen radical scavenging by measuring trolox equivalents preincubated for 15 mins followed by AAPH addition and measured after 80 mins by fluorescence plate reader assay; type: functional; settings: time 95.0 min
[7] = molecular target: T1, Ribosyldihydronicotinamide dehydrogenase [quinone] (Homo sapiens, UniProt P16083); assay: Inhibition of human QR2 expressed in Escherichia coli preincubated with BNAH or NRH followed by menadione addition by FLUOstar plate reader assay
T1 sequence (P16083 whole entry): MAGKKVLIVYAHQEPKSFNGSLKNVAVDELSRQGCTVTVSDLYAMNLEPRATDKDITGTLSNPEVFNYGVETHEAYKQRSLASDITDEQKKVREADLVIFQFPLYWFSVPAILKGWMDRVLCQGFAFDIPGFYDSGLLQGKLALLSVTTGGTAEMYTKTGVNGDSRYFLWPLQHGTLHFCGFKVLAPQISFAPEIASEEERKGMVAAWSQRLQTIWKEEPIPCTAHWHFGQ

SH-SY5Y [8] = assay: Neuroprotective activity against R/O induced human SH-SY5Y cells oxidative stress model assessed as increase in cell survival preincubated for 24 hrs followed by rotenone oligomycin A addition and measured after 24 hrs by MTT assay; type: functional, cell-based; settings: dose 0.01-10 µM, time 48.0 hrs
[9] = Octanol-water partition coefficient, logD of the compound at pH 9; type: physicochemical
[10] = Octanol-water partition coefficient, logD of the compound at pH 12; type: physicochemical
[11] = molecular target: T2, Amine oxidase [flavin-containing] B (Homo sapiens, UniProt P27338); assay: Inhibition of human MAO-B expressed in baculovirus infected BTI insect cells preincubated for 15 mins followed by p-tyramine addition by amplex red reagent based fluorescence microplate reader assay; type: cell-based
T2 sequence (P27338 whole entry): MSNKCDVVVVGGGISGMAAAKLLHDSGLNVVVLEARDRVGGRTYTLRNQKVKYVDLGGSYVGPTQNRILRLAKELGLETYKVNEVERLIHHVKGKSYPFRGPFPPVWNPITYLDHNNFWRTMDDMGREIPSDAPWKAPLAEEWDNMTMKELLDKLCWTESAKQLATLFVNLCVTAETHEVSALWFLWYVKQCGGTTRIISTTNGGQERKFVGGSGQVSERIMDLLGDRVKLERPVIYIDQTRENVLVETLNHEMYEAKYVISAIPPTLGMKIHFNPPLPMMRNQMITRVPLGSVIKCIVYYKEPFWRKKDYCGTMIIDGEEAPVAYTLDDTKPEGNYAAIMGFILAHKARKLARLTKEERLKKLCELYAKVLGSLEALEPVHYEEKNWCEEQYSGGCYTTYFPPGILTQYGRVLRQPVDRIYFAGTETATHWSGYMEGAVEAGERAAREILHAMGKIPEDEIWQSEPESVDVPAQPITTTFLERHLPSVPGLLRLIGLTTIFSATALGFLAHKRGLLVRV

[12] = Octanol-water partition coefficient, logD of the compound at pH 11; type: physicochemical
[13] = Octanol-water partition coefficient, logD of the compound at pH 8; type: physicochemical
[14] = Octanol-water partition coefficient, logD of the compound at pH 7.4; type: physicochemical
[15] = Octanol-water partition coefficient, logD of the compound at pH 4; type: physicochemical
[16] = molecular target: T3, Amine oxidase [flavin-containing] A (Homo sapiens, UniProt P21397); assay: Inhibition of human MAO-A expressed in baculovirus infected BTI insect cells preincubated for 15 mins followed by p-tyramine addition by amplex red reagent based fluorescence microplate reader assay
T3 sequence (P21397 whole entry): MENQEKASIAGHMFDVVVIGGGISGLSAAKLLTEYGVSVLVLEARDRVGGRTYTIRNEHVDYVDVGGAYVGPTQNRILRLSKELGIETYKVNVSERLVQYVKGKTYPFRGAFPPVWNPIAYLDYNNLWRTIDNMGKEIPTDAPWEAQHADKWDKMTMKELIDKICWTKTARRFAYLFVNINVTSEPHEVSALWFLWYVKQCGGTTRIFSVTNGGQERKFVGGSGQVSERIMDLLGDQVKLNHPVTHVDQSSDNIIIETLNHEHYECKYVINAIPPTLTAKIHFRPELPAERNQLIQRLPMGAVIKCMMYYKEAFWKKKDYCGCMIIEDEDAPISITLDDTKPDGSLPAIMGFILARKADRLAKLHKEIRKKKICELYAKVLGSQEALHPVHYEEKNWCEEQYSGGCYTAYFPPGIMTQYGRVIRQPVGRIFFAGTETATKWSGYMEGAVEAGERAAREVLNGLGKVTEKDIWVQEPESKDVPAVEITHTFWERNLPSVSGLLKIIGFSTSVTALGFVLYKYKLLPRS

[17] = Octanol-water partition coefficient, logD of the compound at pH 5; type: physicochemical
[18] = Dissociation constant, pKa of compound; type: physicochemical
NSC [19] = assay: Neurogenic activity in C57BL/6 mouse primary NSCs assessed as increase in number of TuJ-1 cells at 10 uM incubated for 10 days by DAPI staining based fluorescence confocal microscopy; type: functional, cell-based; settings: time 10.0 day
[20] = Octanol-water partition coefficient, logD of the compound at pH 10; type: physicochemical
NSC [21] = assay: Neurogenic activity in C57BL/6 mouse primary NSCs assessed as increase in number of MAP-2 cells at 10 uM incubated for 10 days by DAPI staining based fluorescence confocal microscopy; type: functional, cell-based; settings: time 10.0 day
[22] = Octanol-water partition coefficient, logD of the compound at pH 6.5; type: physicochemical
[23] = Octanol-water partition coefficient, logD of the compound at pH 6; type: physicochemical
CHO = assay: Displacement of 2-[125I]iodomelatonin from human MT1R transfected in CHO cells at 10 uM incubated for 30 mins relative to control; type: cell-based
[24] = Octanol-water partition coefficient, logD of the compound at pH 3; type: physicochemical
[25] = Octanol-water partition coefficient, logD of the compound at pH 7; type: physicochemical
[26] = Octanol-water partition coefficient, logD of the compound at pH 1; type: physicochemical
[27] = Octanol-water partition coefficient, logD of the compound at pH 1.2; type: physicochemical
[28] = molecular target: T4, Polyunsaturated fatty acid 5-lipoxygenase (Homo sapiens, UniProt P09917); assay: Inhibition of human LOX-5 preincubated for 10 mins followed by AA addition and measured after 20 mins in presence of ATP by fluorescence based assay
T4 sequence (P09917 whole entry): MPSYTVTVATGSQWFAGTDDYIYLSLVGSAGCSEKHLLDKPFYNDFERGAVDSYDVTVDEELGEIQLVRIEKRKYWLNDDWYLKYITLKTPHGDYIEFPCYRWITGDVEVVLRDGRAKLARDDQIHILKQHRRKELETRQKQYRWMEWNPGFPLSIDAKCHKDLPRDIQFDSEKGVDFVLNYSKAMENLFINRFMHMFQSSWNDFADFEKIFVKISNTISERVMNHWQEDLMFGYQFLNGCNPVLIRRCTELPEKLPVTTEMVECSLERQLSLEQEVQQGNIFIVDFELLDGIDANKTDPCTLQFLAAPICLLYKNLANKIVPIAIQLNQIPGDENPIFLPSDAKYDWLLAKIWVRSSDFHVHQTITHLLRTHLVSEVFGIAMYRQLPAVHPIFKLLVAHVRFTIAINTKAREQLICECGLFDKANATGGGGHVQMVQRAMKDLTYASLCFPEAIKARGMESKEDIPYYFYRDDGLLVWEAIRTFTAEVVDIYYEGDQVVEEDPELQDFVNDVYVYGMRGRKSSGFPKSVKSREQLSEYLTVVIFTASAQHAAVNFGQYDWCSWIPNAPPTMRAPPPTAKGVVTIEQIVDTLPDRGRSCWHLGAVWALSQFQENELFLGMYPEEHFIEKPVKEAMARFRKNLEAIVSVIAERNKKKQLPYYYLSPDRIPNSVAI

[29] = Octanol-water partition coefficient, logD of the compound at pH 2; type: physicochemical

For `COc1ccc2[nH]cc(CCNC(C)=O)c2c1` [MELATONIN], the viability at 1 µM (SH-SY5Y [1]) was 43%, the Ki [2] was 0.13 nM and the Ki [3] was 0.27 nM. The solubility at 24 h [4] was 6.64 mM (≈ 1540 µg/mL), the Activity (SH-SY5Y [5]) was “Non-Toxic” and the Activity [6] was 2.3.
With `COc1ccc2c(n1)c(CCNC(=O)c1ccco1)c1n2Cc2cccnc2-1` the IC50 [7] was 5 nM.
With `COc1ccc2c(c1)CC(c1c[nH]c3ccc(OC)cc13)N2` (stereo unspecified) the Activity (SH-SY5Y [8]) was “Dose-Dependent Effect”, the logD [9] was 3.31 and the viability at 1 µM (SH-SY5Y [1]) was 50%. For the same molecule, the logD [10] was 3.31, the IC50 [11] was 3690 nM and the logD [12] was 3.31. For the same molecule, the logD [13] was 3.31, the logD [14] was 3.31 and the logD [15] was 2.28. It also gave an IC50 [16] of 2540 nM, a logD [17] of 2.97 and a pKa [18] of 5.26. For the same molecule, the Ki [2] was 620 nM, the Activity (NSC [19]) was “Active” and the logD [20] was 3.31. For the same molecule, the Activity (NSC [21]) was “Active”, the logD [22] was 3.3 and the logD [23] was 3.26. It also gave a Ki [3] of about 10000 nM, an Activity (CHO) of 58% and a solubility at 24 h [4] of 0.0329 mM (≈ 9.68 µg/mL). For the same molecule, the logD [24] was 1.78, the logD [25] was 3.31 and the logD [26] was 1.66. For the same molecule, the Activity (SH-SY5Y [5]) was “Non-Toxic”, the logD [27] was 1.65 and the Activity [6] was 2.3. It also gave an IC50 [28] of 5300 nM and a logD [29] of 1.67.
